From patent US20190374478A1, “Ultrastable Gold Nanoparticles For Drug Delivery Applications And Synthesis Thereof” (Université Laval, priority 2016, published 2019) come the findings set out here.

Structures are written as SMILES.

The nature of data set [1]: Encapsulation efficiency (indirect assay, magnetic bead removal, UV-visible/HPLC of supernatant). The class given is physicochemical. To be noted: 69 nM AuNPs. Here is the method:
The AuNPs and the drug are brought into contact in a screw-cap 2 mL microtube, with magnetic bar stirring, at 37° C. for a time determined according to the kinetics of encapsulation obtained by UV-visible spectroscopy.
In the case of travoprost, an encapsulation time of five days was chosen according to the encapsulation kinetics determined by UV spectroscopy at 278 nm (FIG. 9).
The method used to determine the encapsulation efficiency rely on an indirect assay by evaluating what has not been encapsulated. Once the encapsulation is complete, the entire mixture is brought into contact with magnetic beads to allow the nanoparticles that contain the encapsulated drug to be removed from the medium. The residual supernatant is then analyzed by UV-visible spectroscopy and high-performance liquid chromatography (HPLC).
To do so, a solution of 0.0005% phosphate buffered saline Tween™ (PBS-T) was prepared. The magnetic beads were then cleaned and 100 μL of magnetic beads were placed in a 1.5 mL microtube. The beads were then magnetized, and the supernatant was removed.
1 mL of the prepared PBS-T was added to the beads, the beads were then suspended with a vigorous vortex for 30 seconds. The beads were then magnetized, and the supernatant was removed. […]
The final supernatant was analyzed by UV-Visible spectroscopy (λ=200-700 nm) and by high-performance liquid chromatography (HPLC).

Data set [2] deals with intraocular pressure in glaucomatous mice. As to the kind of experiment: Intraocular pressure in microbead-induced hypertensive glaucoma model. The class given is in vivo, C57BL/6J mice. As to the method: An in vivo glaucoma model involving the injection of exogenous microbeads into the anterior chamber was used (FIG. 17A). The injected beads partially block the trabecular meshwork resulting in intraocular pressure (IOP) elevation while causing no damage to the site of drug action. Two-month-old C57BL/6J mice were used. The IOP was followed with a tonometer (Tonolab®) specially designed for rodents. Animals were injected with 5 μL of microbeads with a dimeter of about 10 μm (7.2×10^6 microbeads/mL) in the anterior chamber of the left eye. For the encapsulation experiments, travoprost was solubilized in water/ethanol (50/50) in the presence of AuNPs. The solution was heated (65° C.) in order to evaporate the ethanol and to induce conformational changes of PEG molecules leading to a better encapsulation. The solution was thus completed with water until the initial volume. Hypertensive glaucoma was induced in adult C57BL/6 mice by injecting 5 μL of polystyrene microbeads (35,000 microbeads) with an average diameter of 10 μm in the anterior chamber of the eye. The dispersion of the microbeads at the level of the iridocorneal angle blocks the passage of the aqueous humor towards the trabecular meshwork (FIG. 17A). Mechanically, the decrease in drainage of the aqueous humor produces an increase in intraocular pressure which is measured with a tonometer of the Tonolab brand. […]

Take `CC(C)OC(=O)CCC/C=C\C[C@@H]1[C@@H](/C=C/[C@@H](O)COc2cccc(C(F)(F)F)c2)[C@H](O)C[C@@H]1O` [travoprost]: the “Percentage of encapsulated travoprost” value was “about 68.52%±4.032” in data set [1] (initial 80 μM travoprost) and “about 67.98%±3.877” in data set [1] (initial 120 μM travoprost). Moreover, the “Level of intraocular pressure after 24 hours” value in data set [2] (24 hours after single topical application) is “returned to a high level, similar to that before treatment”. Moreover, the “Effect on intraocular pressure” value in data set [2] (single topical application, glaucomatous mice) is reported as “significantly but transiently decreased”.
